The text below walks through data of patent US20230390274A1 (EPIRIUM BIO INC., priority 2020, published 2023).

Molecules are shown by their SMILES.

Sequence of 15-PGDH/HPGD (P15428 whole entry): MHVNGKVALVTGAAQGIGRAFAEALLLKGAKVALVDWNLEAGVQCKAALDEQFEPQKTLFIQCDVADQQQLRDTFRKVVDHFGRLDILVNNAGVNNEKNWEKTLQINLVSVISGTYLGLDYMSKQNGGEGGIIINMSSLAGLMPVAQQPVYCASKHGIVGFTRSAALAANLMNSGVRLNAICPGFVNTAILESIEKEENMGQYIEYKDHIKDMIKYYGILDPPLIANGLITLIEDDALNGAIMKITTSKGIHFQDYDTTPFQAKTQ

The target of the first experiment is 15-PGDH/HPGD (Homo sapiens (Human), UniProt P15428). Kind of experiment: hPGDH inhibitor screening biochemical assay. To be noted: 10 nM 15-PGDH/HPGD, 15 μM PGE2, 0.25 mM NAD; read-out: hPGDH: Average IC50. In short, it runs like this:
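10 nM recombinant 15-PGDH was preincubated with compound (10-point) for 10 min at 37° C. in 50 mM Tris-HCl pH 7.5, 0.01% Tween 20. Then 15 μM PGE2 and 0.25 mM NAD+ were added for 10 min at rt. NADH fluorescence (ex/em 340/485 nm) gave % inhibition versus 1% DMSO and a four-parameter IC50.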
Usually IC50 stands for the concentration that inhibits the measured activity by half. In the case of `O=C(c1cnc2c(ccn2-c2cnccn2)c1)N1CCC(F)CC1` [A-50], the concentration for half-maximal inhibition (IC50) was < 100 nM. The same measure, in the same setting: then `Cc1c(C(=O)N2CCC(F)CC2)cnc2c1ccn2-c1cnccn1` [A-97, (4-fluoropiperidin-1-yl)(4-methyl-1-(pyrazin-2-yl)-1H-pyrrolo[2,3-b]pyridin-5-yl)methanone], with < 100 nM; and `CCOc1ccc(-n2cnc3cc(C(=O)N4CCCCC4)cnc32)cc1` [A-186], with < 100 nM; and `NC(=O)c1ccc(-n2ccc3cc(C(=O)N4CCCCC4)cnc32)cc1` [A-159], with < 100 nM. As to `O=C(c1cnc2c(ccn2-c2ccc(O)nc2)c1)N1CCC(F)CC1` [A-55], the IC50 was < 100 nM. Regarding `NCCNC(=O)c1ccc(-n2ccc3cc(C(=O)N4CCC(F)(F)CC4)cnc32)cc1` [A-221, N-(2-aminoethyl)-4-(5-(4,4-difluoropiperidine-1-carbonyl)-1H-pyrrolo[2,3-b]pyridin-1-yl)benzamide], the IC50 was < 100 nM. On the same count and under the same terms, under `NC(=O)c1ccc(-n2cnc3cc(C(=O)N4CCC(F)(F)CC4)cnc32)cc1` [A-195] stands < 100 nM; under `O=C(NC1(C(=O)O)CC1)c1ccc(-n2ccc3cc(C(=O)N4CCC(F)(F)CC4)cnc32)cc1` [A-233], < 100 nM; under `O=C(NCCO)c1cccc(-n2ccc3cc(C(=O)N4CCC(F)(F)CC4)cnc32)c1` [A-263, 3-(5-(4,4-difluoropiperidine-1-carbonyl)-1H-pyrrolo[2,3-b]pyridin-1-yl)-N-(2-hydroxyethyl)benzamide], < 100 nM. The same measure, in the same setting: then `C[C@H]1CCCN(C(=O)c2cnc3c(ccn3-c3ccc(C(=O)O)cc3)c2)C1` [A-339, (S)-4-(5-(3-methylpiperidine-1-carbonyl)-1H-pyrrolo[2,3-b]pyridin-1-yl)benzoic acid], with < 100 nM; and `CCOC(=O)CCc1nc2cc(C(=O)N3CCCCC3)ccc2n1-c1cccc(Cl)c1` [A-29], with < 100 nM; and `N#Cc1cccc(-n2ccc3cc(C(=O)N4CCCCC4)cnc32)c1` [A-148], with < 100 nM. The same measure, in the same setting: then `O=C(c1cnc2c(ccn2-c2cncc(-c3nc[nH]n3)c2)c1)N1CCC(F)(F)CC1` [A-292, (1-(5-(1H-1,2,4-triazol-3-yl)pyridin-3-yl)-1H-pyrrolo[2,3-b]pyridin-5-yl)(4,4-difluoropiperidin-1-yl)methanone], with < 100 nM; and `O=C(c1ccc(COc2ccccc2Cl)cn1)N1CCC(F)CC1` [A-76], with ≥ 1000 nM. In the case of `O=C(NCCO)c1ccc(-n2ccc3cc(C(=O)N4CCC(F)(F)CC4)cnc32)cc1` [A-223], the IC50 is < 100 nM.

For `N#Cc1ccc(-n2ccc3cc(C(=O)N4CC[C@@H](F)C4)cnc32)cc1` (single isomer, unassigned) [A-341], the half-inhibitory concentration (IC50) is < 100 nM.

In the case of `CN(C(=O)c1ccc2c(c1)ncn2-c1cccc(Cl)c1)C1CC1` [A-23, 1-(3-chlorophenyl)-N-cyclopropyl-N-methyl-1H-benzo[d]imidazole-5-carboxamide], the concentration for half-maximal inhibition (IC50) is ≥ 1000 nM. Still for that read-out and setting: under `NC(=O)[C@@H]1CCCN1C(=O)c1ccc(-n2ccc3cc(C(=O)N4CCC(F)(F)CC4)cnc32)cc1` [A-248, (S)-1-(4-(5-(4,4-difluoropiperidine-1-carbonyl)-1H-pyrrolo[2,3-b]pyridin-1-yl)benzoyl)pyrrolidine-2-carboxamide] stands < 100 nM; under `O=C(c1cnc2c(c(Cl)cn2-c2cnccn2)c1Cl)N1CCC(F)CC1` [A-173], < 100 nM. The same measure, in the same setting: under `O=C(c1cnc2c(ccn2-c2ccc3[nH]ncc3c2)c1)N1CCC(F)(F)CC1` [A-211] stands < 100 nM; under `COc1ccc(-n2ccc3cc(C(=O)N4CCC(F)CC4)ccc32)cc1` [A-304], < 100 nM; under `CC(C)(C)CNC(=O)c1ccc(-n2ccc3cc(C(=O)N4CCC(F)(F)CC4)cnc32)cn1` [A-240, 5-(5-(4,4-difluoropiperidine-1-carbonyl)-1H-pyrrolo[2,3-b]pyridin-1-yl)-N-neopentylpicolinamide], < 100 nM. Same read-out and setting: under `CCNC(=O)c1ccc(-n2ccc3cc(C(=O)N4CCC(F)(F)CC4)cnc32)nc1` [A-268, 6-(5-(4,4-difluoropiperidine-1-carbonyl)-1H-pyrrolo[2,3-b]pyridin-1-yl)-N-ethylnicotinamide] stands < 100 nM; under `NC[C@@H]1CN(c2cncc(-n3ccc4cc(C(=O)N5CCC(F)(F)CC5)cnc43)c2)C(=O)O1` [A-270], < 100 nM; under `COc1cc(C(=O)N2CCCCC2)ccc1COc1ccccc1Cl` [A-71], < 100 nM. Consider `CC(C)(C)C(=O)NCCNC(=O)c1ccc(-n2ccc3cc(C(=O)N4CCC(F)(F)CC4)cnc32)cc1` [A-215, 4-(5-(4,4-difluoropiperidine-1-carbonyl)-1H-pyrrolo[2,3-b]pyridin-1-yl)-N-(2-pivalamidoethyl)benzamide], for which the IC50 is < 100 nM.

On to `O=C(c1cnc2c(c1)ncn2-c1ccc(OC(F)(F)F)cc1)N1CCCCC1` [A-182], for which the concentration for half-maximal inhibition (IC50) was < 100 nM.

Turning to `Cc1c(C(=O)N2CCC(F)CC2)cnc2c1ccn2-c1ccc(C(N)=O)cc1` [A-202, 4-(5-(4-fluoropiperidine-1-carbonyl)-4-methyl-1H-pyrrolo[2,3-b]pyridin-1-yl)benzamide], the concentration for half-maximal inhibition (IC50) was < 100 nM.

For the molecule `N#Cc1ccc(-n2cc(Cl)c3cc(C(=O)N4CCC(F)CC4)cnc32)cc1` [A-207], the IC50 is < 100 nM. The same measure, in the same setting: then `O=C(c1cnc2c(ccn2-c2cncc(NS(=O)(=O)C3CC3)c2)c1)N1CCC(F)(F)CC1` [A-274, N-(5-(5-(4,4-difluoropiperidine-1-carbonyl)-1H-pyrrolo[2,3-b]pyridin-1-yl)pyridin-3-yl)cyclopropanesulfonamide], with < 100 nM; and `O=C(c1ccc2c(ccn2-c2cccc(Cl)c2)c1)N1CCCCC1` [A-87], with < 100 nM. Same read-out and setting: under `COc1cncc(-n2cc(Cl)c3cc(C(=O)N4CCCCC4)cnc32)c1` [A-171] stands < 100 nM; under `CC(C)(O)c1ccc(-n2ccc3cc(C(=O)N4CCCCC4)cnc32)cc1` [A-130], < 100 nM.

With `N#Cc1ccc(-n2ccc3cc(C(=O)N4CCC(F)(F)CC4)cnc32)cc1O` [A-243], the IC50 is < 100 nM. The same measure, in the same setting: then `O=C(c1cnc2c(ccn2-c2cncc(-c3nnn[nH]3)c2)c1)N1CCC(F)(F)CC1` [A-251, (1-(5-(1H-tetrazol-5-yl)pyridin-3-yl)-1H-pyrrolo[2,3-b]pyridin-5-yl)(4,4-difluoropiperidin-1-yl)methanone], with < 100 nM; and `O=C(c1cnc2c(ccn2-c2cncc(-c3noc(=O)[nH]3)c2)c1)N1CCC(F)(F)CC1` [A-252, 3-(5-(5-(4,4-difluoropiperidine-1-carbonyl)-1H-pyrrolo[2,3-b]pyridin-1-yl)pyridin-3-yl)-1,2,4-oxadiazol-5(4H)-one], with < 100 nM; and `O=C(O)CCc1nc2cc(C(=O)N3CCCCC3)ccc2n1-c1cccc(Cl)c1` [A-30], with < 100 nM. On the same count and under the same terms, then `COc1ccc(Cn2cc3cc(-n4ccc5cc(C(=O)N6CCCCC6)cnc54)ccc3n2)cc1` [A-121], with < 100 nM; and `CS(=O)(=O)NCCNC(=O)c1cccc(-n2ccc3cc(C(=O)N4CCC(F)(F)CC4)cnc32)c1` [A-271, 3-(5-(4,4-difluoropiperidine-1-carbonyl)-1H-pyrrolo[2,3-b]pyridin-1-yl)-N-(2-(methylsulfonamido)ethyl)benzamide], with < 100 nM. On the same count and under the same terms, then `O=C(c1ccc2c(c1)ncn2-c1cccc(Cl)c1)N1CCC(F)(F)C1` [A-10], with ≥ 1000 nM. Consider `O=C(c1cnc2c(ccn2-c2ccc3c(c2)OCO3)c1)N1CCC(F)CC1` [A-298], for which the IC50 is < 100 nM. On the same count and under the same terms, then `COc1ccc(-n2ccc3cc(C(=O)N4CCC(F)CC4)cnc32)cc1` [A-142], with < 100 nM; and `N#Cc1ccc(-n2ccc3cc(C(=O)N4CCC(F)CC4)ncc32)cc1` [A-260, 4-(5-(4-fluoropiperidine-1-carbonyl)-1H-pyrrolo[2,3-c]pyridin-1-yl)benzonitrile], with ≥ 1000 nM. As to `O=C(c1ccc2c(c1)ncn2-c1cccc(Cl)c1)N1CCCCC1` [A-6], the concentration for half-maximal inhibition (IC50) was < 100 nM.

`COc1ccc(-n2ccc3cc(C(=O)N4C[C@H](C)C[C@H](C)C4)cnc32)cc1` [A-138, ((3R,5S)-3,5-dimethylpiperidin-1-yl)(1-(4-methoxyphenyl)-1H-pyrrolo[2,3-b]pyridin-5-yl)methanone]: the concentration for half-maximal inhibition (IC50) is < 100 nM. The same measure, in the same setting: then `COc1ccc(-n2cnc3cc(C(=O)N4CCC(F)CC4)ccc32)nc1` [A-38], with < 100 nM. Still for that read-out and setting: under `O=C(c1cnc2c(ccn2-c2cncnc2)c1)N1CCCCC1` [A-44] stands < 100 nM.

`O=C(c1ccc2c(c1)nnn2-c1cccc(Cl)c1)N1CCCCC1` [A-95, (1-(3-chlorophenyl)-1H-benzo[d][1,2,3]triazol-5-yl)(piperidin-1-yl)methanone]: the IC50 was < 100 nM. On the same count and under the same terms, under `O=C(c1cnc2c(ccn2-c2cccnc2)c1)N1CCCCC1` [A-42] stands < 100 nM; under `O=C(c1ccc2c(c1)ncn2-c1cccc(Cl)c1)N1CCC(F)(F)CC1` [A-8], < 100 nM.

Still in this experiment, the particulars now being: Table 1, PGDH inhibitors with a 6-5 ring core; read-out: hPGDH: IC50.
With `O=C(c1ccc2c(c1)ncn2-c1cccc(Cl)c1)N1CCCC1`, the IC50 amounted to 274 nM. The same measure, in the same setting: then `O=C(c1ccc2c(c1)ncn2-c1cccc(Cl)c1)N1CCC(F)(F)C1` [drawing 83], with 1260 nM. On the same count and under the same terms, then `O=C(c1cnc2c(c1)ncn2-c1cccc(Cl)c1)N1CCCCC1` [drawing 106], with 12.8 nM; and `O=C(c1ccc2c(c1)ncn2-c1cccc(Cl)c1)N1CC2CCCC2C1` (stereo not drawn) [drawing 102], with 24.9 nM; and `O=C(c1ccc2c(c1)ncn2-c1cccc(Cl)c1)N1CCC(Cl)C1` (stereo not drawn) [drawing 90], with 64.7 nM.

The same experiment, now with this note: Table 2, PGDH inhibitors with a phenyl core; read-out: hPGDH: IC50.
For `COc1ccccc1NC(=O)c1ccc(C(=O)N2CCCCC2)cc1`, the IC50 amounted to 593 nM. Same read-out and setting: under `O=C(Nc1ccc(C(=O)N2CCCCC2)cc1)c1ccccc1Cl` stands 277 nM.
